# Measured values published in patent US20040248919A1, “Fluorinated trienes and their use as rxr modulators” (priority 2001, published 2004).
# What was measured:
# RXR:RAR heterodimer = RXR:RAR heterodimer co-transfection assay (RARa Synergy CTF) in CV-1 cells; assay type: cell-based, human; conditions: for RARa Synergy CTF % Efficacy: agonist efficacy
# Description: In the co-transfection assay, cloned cDNA for one or more IRs (e.g. human RARα, RXRα, or PPARγ), alone or in combination (i.e. for heterodimer assays) under the control of a constitutive promoter (e.g., the SV 40, RSV or CMV promoter) is introduced by transfection (a procedure to introduce exogenous genes into cells) into a background cell substantially devoid of endogenous IRs. These introduced gene(s) direct the recipient cells to make the IR protein(s) of interest. A further gene is also introduced (co-transfected) into the same cells in conjunction with the IR gene(s). This further gene, comprising the cDNA for a reporter protein, such as firefly luciferase (LUC), controlled by an appropriate hormone responsive promoter containing a hormone response element (HRE). This reporter plasmid functions as a reporter for the transcriptional-modulating activity of the target IR(s). Thus, the reporter acts as a surrogate for the products (mRNA then protein) normally expressed by a gene under control of the target receptor(s) and their native hormone(s).
# The RXR modulator compounds of the present invention were further tested for activity on RXR heterodimers with RARα utilizing the cotransfection assay in CV-1 cells as described in Example 12B. The RXR:RAR heterodimer cotransfection assays utilized the following expression plasmids and reporter plasmid: pRShRARα (10 ng/well, Giguere et al., 330 Nature, 624 (1987) the disclosure of which is herein incorporated by reference) or pRShRARγ (10 ng/well, Ishikawa et al., 4 Mol. Endocrin, 837 (1990) the disclosure of which is herein incorporated by reference) with Δ-MTV-LUC (50 ng/well, Hollenberg and Evans, 55 Cell, 899 (1988), the disclosure of which is herein incorporated by reference) containing an RARE which is referred to as two copies of the TRE-palindromic response element described in Umesono et al., 336 Nature, 262 (1988), the disclosure of which is herein incorporated by reference. To conduct a RXR:PPARγ heterodimer cotransfection assay, the RXRα receptor expression plasmid, pRShRXRα (10 ng/well), can be cotransfected with the PPARγ expression plasmid, pCMVhPPARγ (10 ng/well), and a reporter plasmid containing three copies of a PPARγ response element (pPREA3-tk-LUC, 50 ng/well; Mukherjee et al. 272 Journ. Biol. Chem., 8071-8076 (1997) and references cited therein, the disclosures of which are herein incorporated by reference).
# Cotransfections were performed as described in Example 12B. For determination of agonist activity in the context of the RXR:RAR heterodimer, media containing compounds of the present invention in concentrations ranging from 10^−10 to 10^−5 M were added to the cells. Similarly, the reference compounds all-trans retinoic acid (ATRA)(Sigma Chemical) and TTNPB ((E)-4-[2-(5,6,7,8-tetrahydro-5,5,8,8-tetramethyl-2-naphthalenyl)-1-propenyl]benzoic acid: Hoffman LaRoche, Inc.), known RAR agonist compounds were added at similar concentrations to provide a reference point for analysis of the agonist activity of the compounds of the present invention. Antagonist efficacy and IC50 values were determined as in Example 12B.
# RAR suppresses RXR ligand binding and transactivation of typical RXR agonists (e.g., LGD1069, LG100268) via allosteric interactions. Forman, B. M., Umesono, K., Chen, J., & Evans, R. M., Cell 81, 541-550 (1995) and Kurokawa, R., et. al. Nature 371, 528-531 (1994). However, when RAR is occupied, typical RXR agonists activate the heterodimer. Forman, B. M., Umesono, K, Chen, J., & Evans, R. M., Cell 81, 541-550 (1995) and Roy, B., Taneja, R., & Chambon, P., Mol. Cell. Biol. 15, 6481-6487 (1995). To examine the effects of the compounds of the present invention on the transcriptional properties of the RXR:RAR heterodimer, a heterodimer cotransfection assay as described above was employed.
# RARγ = biological target: T1, RARγ (Homo sapiens, UniProt P13631); test: RAR binding, competition with tritiated retinoid; conditions: read-out: RAR Binding gamma
# T1 sequence (P13631 1-454): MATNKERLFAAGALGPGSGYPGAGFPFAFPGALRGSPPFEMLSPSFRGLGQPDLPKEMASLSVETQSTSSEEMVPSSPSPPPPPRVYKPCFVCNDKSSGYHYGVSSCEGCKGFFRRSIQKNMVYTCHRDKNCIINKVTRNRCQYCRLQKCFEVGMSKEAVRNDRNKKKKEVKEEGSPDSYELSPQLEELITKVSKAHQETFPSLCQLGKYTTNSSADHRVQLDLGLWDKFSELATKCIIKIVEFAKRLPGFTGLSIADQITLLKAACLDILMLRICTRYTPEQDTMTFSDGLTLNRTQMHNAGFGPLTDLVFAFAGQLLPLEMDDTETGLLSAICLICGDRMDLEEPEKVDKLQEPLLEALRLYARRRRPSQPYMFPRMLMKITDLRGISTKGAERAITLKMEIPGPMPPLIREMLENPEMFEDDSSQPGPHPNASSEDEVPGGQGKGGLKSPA
# Description: In addition to the cotransfection data, the binding of selected compounds of the present invention to the RAR and RXR receptors was also investigated according to the methodology described in M. F., Boehm, et al., “Synthesis and Structure-Activity Relation-ships of Novel Retinoid X Receptor Selective Retinoids”, 37 J. Med. Chem., 2930 (1994); M. F. Boehm, et al., “Synthesis of High Specific Activity [^3H]-9-cis Retinoic Acid and Its Application for Identifying Retinoids with Unusual Binding Properties”, 37 J. Med. Chem., 408 (1994), and E. A. Allegretto, et al., “Characterization and Comparison of Hormone-Binding and Transactivation Properties of Retinoic Acid and Retinoid X Receptors Expressed in Mammalian Cells and Yeast”, 268 J. Biol. Chem., 22625 (1993), the disclosures of which are herein incorporated by reference.
# Non-specific binding was defined as that binding remaining in the presence of 500 nM of the appropriate unlabelled compound. At the end of the incubation period, bound ligand was separated from free. The amount of bound tritiated retinoid was determined by liquid scintillation counting of an aliquot (700 μL) of the supernatant fluid or the hydroxylapatite pellet.
# After correcting for non-specific binding, IC50 values were determined. The IC50 value is defined as the concentration of competing ligand needed to reduce specific binding by 50%. The IC50 value was determined graphically from a log-logit plot of the data. The Ki values were determined by application of the Cheng-Prussof equation to the IC50 values, the labeled ligand concentration and the Kd of the labeled ligand.
Structure (SMILES),RARa Synergy CTF fold induction (RXR:RAR heterodimer),RARa Synergy CTF % Efficacy (RXR:RAR heterodimer),Ki (RARγ)
"C/C(=C/C=C(F)/C(C)=C/C(=O)O)c1cc(C(C)(C)C)cc(C(C)(C)C)c1OCC(F)F [Example 1, 7-[3,5-di-tert-butyl-2-(2,2-difluoroethoxy)-phenyl]4-fluoro-3-methyl-octa-2,4,6-trienoic acid]",3,28%,
"C/C(=C/C(F)=C/C(C)=C/C(=O)O)c1cc(C(C)(C)C)cc(C(C)(C)C)c1OCC(F)F [Example 2, 7-[3,5-Di-tert-butyl-2-(2,2-difluoroethoxy)-phenyl]-5-fluoro-3-methyl-octa-2,4,6-trienoic acid]",9,112%,
"CCCCOc1c(\C(C)=C/C=C/C(=C/C(=O)O)C(F)(F)F)cc(C(C)C)cc1C(C)C [Example 3, (2Z,4E,6Z)-7-(2-Butoxy-3,5-diisopropylphenyl)-3-trifluoromethyl-octa-2,4,6-trienoic acid]",1,6%,> 10 µM
"CCCCOc1c(\C(C)=C/C=C/C(=C\C(=O)O)C(F)(F)F)cc(C(C)C)cc1C(C)C [Example 4, (2E,4E,6Z)-7-(2-Butoxy-3,5-diisopropylphenyl)-3-trifluoromethyl-octa-2,4,6-trienoic acid]",1,6%,> 10 µM
"CCOc1c(\C(=C/C=C/C(C)=C/C(=O)O)C(F)(F)F)cc(C(C)(C)C)cc1C(C)(C)C [Example 5, (2E,4E,6E)-3-methyl-7-(2-ethoxy-3,5-di-tert-butylphenyl)-8,8,8-trifluoroocta-2,4,6-trienoic acid]",,7%,> 10 µM
